Data taken from ChEMBL document CHEMBL1201862, “PubChem BioAssay data set” (2004).
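Assay format: 96-well plates, 48-hour exposure. At the GI50, growth is halved.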 Active and inactive are the calls of the source. Rule as the data show it: active = GI50 up to about 1.1 µM and inactive = higher.

How the values were obtained:
Assay in all cases: NCI anticancer screen, dose series, 48 h
DU-145 = tested on: DU-145
HCT-15 = tested on: HCT-15
K562 = tested on: K562
KM12 = tested on: KM12
LOX IMVI = tested on: LOX IMVI
MOLT-4 = tested on: MOLT-4
NCI-H23 = tested on: NCI-H23
NCI-H460 = tested on: NCI-H460
NCI-H522 = tested on: NCI-H522
PC-3 = tested on: PC-3
RPMI-8226 = tested on: RPMI-8226
SK-MEL-5 = tested on: SK-MEL-5
A498 = tested on: A498
HOP-92 = tested on: HOP-92
Malme-3M = tested on: Malme-3M
NCI-H226 = tested on: NCI-H226
OVCAR-4 = tested on: OVCAR-4
RXF 393 = tested on: RXF 393
SK-OV-3 = tested on: SK-OV-3
SNB-75 = tested on: SNB-75

Structure (SMILES)	GI50 (DU-145)	GI50 (HCT-15)	GI50 (K562)	GI50 (KM12)	GI50 (LOX IMVI)	GI50 (MOLT-4)	GI50 (NCI-H23)	GI50 (NCI-H460)	GI50 (NCI-H522)	GI50 (PC-3)	GI50 (RPMI-8226)	GI50 (SK-MEL-5)	GI50 (A498)	GI50 (HOP-92)	GI50 (Malme-3M)	GI50 (NCI-H226)	GI50 (OVCAR-4)	GI50 (RXF 393)	GI50 (SK-OV-3)	GI50 (SNB-75)
CC1C(c2ccc3c(c2)OCO3)c2cc3c(cc2OC1N1CCCCC1)OCO3 (centres undefined)	52.8 µM (inactive)	50.4 µM	35.7 µM (inactive)	41.9 µM (inactive)	82.2 µM (inactive)	36.7 µM (inactive)	60.8 µM (inactive)	77.8 µM (inactive)	31.6 µM (inactive)	37.5 µM (inactive)	47.9 µM (inactive)	54.6 µM (inactive)	–	–	–	–	–	–	–	–
O=C(/C=C1/NC(=O)CS1)Nc1ccccc1	–	–	> 100 µM (inactive)	> 100 µM (inactive)	> 10 µM (inactive)	> 100 µM (inactive)	> 100 µM (inactive)	> 100 µM (inactive)	> 100 µM (inactive)	–	> 100 µM (inactive)	> 100 µM (inactive)	> 100 µM (inactive)	> 100 µM (inactive)	30.8 µM (inactive)	> 100 µM (inactive)	> 100 µM (inactive)	> 100 µM (inactive)	> 100 µM (inactive)	50 µM (inactive)
CSCCCN(CCCSC)CCCSC	> 100 µM (inactive)	> 100 µM	97.5 µM (inactive)	> 100 µM (inactive)	> 100 µM (inactive)	24.2 µM (inactive)	> 100 µM (inactive)	> 100 µM (inactive)	66.7 µM (inactive)	> 100 µM (inactive)	–	> 100 µM (inactive)	–	–	–	–	> 100 µM (inactive)	–	> 100 µM (inactive)	48.5 µM (inactive)
O=C1NN=C(c2ccc(Cl)cc2)CC1C1C(=O)N(c2ccccc2)N=C1c1ccccc1 (centres undefined)	53.7 µM (inactive)	31.3 µM	30 µM (inactive)	29 µM (inactive)	18.2 µM (inactive)	28.1 µM (inactive)	23.3 µM (inactive)	28.1 µM (inactive)	23.6 µM (inactive)	22.2 µM (inactive)	37.1 µM (inactive)	> 10 µM (inactive)	26.2 µM (inactive)	–	30.7 µM (inactive)	31.8 µM (inactive)	26.4 µM (inactive)	22.5 µM (inactive)	39.5 µM (inactive)	23.2 µM (inactive)
CCOC(=O)C(C(=O)COC(C)(C)C)[C@@H]1C=C[C@H](OC(C)=O)C1 (some centres undefined)	–	> 100 µM	> 100 µM (inactive)	> 100 µM (inactive)	–	65.2 µM (inactive)	> 100 µM (inactive)	> 100 µM (inactive)	–	> 100 µM (inactive)	> 100 µM (inactive)	–	> 100 µM (inactive)	–	> 100 µM (inactive)	> 100 µM (inactive)	> 100 µM (inactive)	–	> 100 µM (inactive)	> 100 µM (inactive)
c1ccc(C(/C(=N/c2ccc(Cc3ccc(/N=C(\C(c4ccccc4)c4ccccc4)N4CC4)cc3)cc2)N2CC2)c2ccccc2)cc1	12.6 µM (inactive)	10.1 µM	2.33 µM (inactive)	6.28 µM (inactive)	1.53 µM (inactive)	–	10.5 µM (inactive)	1.78 µM (inactive)	3.14 µM (inactive)	3.83 µM (inactive)	3.65 µM (inactive)	5.04 µM (inactive)	12.5 µM (inactive)	–	14.9 µM (inactive)	14.7 µM (inactive)	–	1.09 µM (active)	< 0.01 µM (active)	–
CC[C@H](NC1=C(Cl)C(=O)c2c(O)ccc(O)c2C1=O)C(=O)OC	> 10 µM (inactive)	5.33 µM	3.94 µM (inactive)	> 10 µM (inactive)	3.64 µM (inactive)	2.6 µM (inactive)	> 10 µM (inactive)	> 10 µM (inactive)	3.53 µM (inactive)	6.9 µM (inactive)	> 10 µM (inactive)	6.53 µM (inactive)	–	> 10 µM (inactive)	4.28 µM (inactive)	> 10 µM (inactive)	7.71 µM (inactive)	–	> 10 µM (inactive)	> 10 µM (inactive)
O=c1c(-c2ccccc2)c(SCCO)n(-c2ccccc2)c(=S)n1-c1ccccc1	> 100 µM (inactive)	> 100 µM	> 100 µM (inactive)	> 100 µM (inactive)	> 100 µM (inactive)	> 100 µM (inactive)	> 100 µM (inactive)	> 100 µM (inactive)	> 100 µM (inactive)	> 100 µM (inactive)	> 100 µM (inactive)	> 100 µM (inactive)	–	–	> 100 µM (inactive)	> 100 µM (inactive)	> 100 µM (inactive)	–	> 100 µM (inactive)	39.6 µM (inactive)
COC(=O)NN(C(=O)OC)c1c(-c2ccccc2)nc(SC)n1N	> 100 µM (inactive)	> 100 µM	> 100 µM (inactive)	> 100 µM (inactive)	> 100 µM (inactive)	> 100 µM (inactive)	> 100 µM (inactive)	> 100 µM (inactive)	> 100 µM (inactive)	> 100 µM (inactive)	> 100 µM (inactive)	> 100 µM (inactive)	> 100 µM (inactive)	–	> 100 µM (inactive)	> 100 µM (inactive)	> 100 µM (inactive)	> 100 µM (inactive)	–	> 100 µM (inactive)
CCOC(=O)CC1(Cc2ccc(OCc3ccccc3)cc2)C(=O)OC(c2ccccc2)N1C(=O)c1ccccc1 (centres undefined)	> 100 µM (inactive)	> 100 µM	> 100 µM (inactive)	> 100 µM (inactive)	> 100 µM (inactive)	> 100 µM (inactive)	> 100 µM (inactive)	21.5 µM (inactive)	> 100 µM (inactive)	> 100 µM (inactive)	> 100 µM (inactive)	> 100 µM (inactive)	–	> 100 µM (inactive)	> 100 µM (inactive)	> 100 µM (inactive)	> 100 µM (inactive)	> 100 µM (inactive)	> 100 µM (inactive)	–
CC(C)N/C(=N\C#N)NS(=O)(=O)c1cnccc1NC1CCCCCCC1	> 100 µM (inactive)	> 100 µM	> 100 µM (inactive)	> 100 µM (inactive)	–	> 100 µM (inactive)	> 100 µM (inactive)	–	> 100 µM (inactive)	> 100 µM (inactive)	39.8 µM (inactive)	> 100 µM (inactive)	> 100 µM (inactive)	–	> 100 µM (inactive)	> 100 µM (inactive)	> 100 µM (inactive)	> 100 µM (inactive)	> 100 µM (inactive)	> 100 µM (inactive)
Oc1ccc(Cl)cc1/N=N\c1c(O)ccc2ccccc12	–	> 100 µM	> 100 µM (inactive)	> 100 µM (inactive)	60.7 µM (inactive)	35 µM (inactive)	> 100 µM (inactive)	–	59.4 µM (inactive)	> 100 µM (inactive)	> 100 µM (inactive)	92.7 µM (inactive)	–	> 100 µM (inactive)	22.2 µM (inactive)	> 100 µM (inactive)	> 100 µM (inactive)	> 100 µM (inactive)	> 100 µM (inactive)	> 100 µM (inactive)
COc1ccc(-n2c(C)nc3ccc(NC4OCC(OC(C)=O)C(OC(C)=O)C4OC(C)=O)cc3c2=O)cc1 (centres undefined)	> 100 µM (inactive)	> 100 µM	> 100 µM (inactive)	> 100 µM (inactive)	> 100 µM (inactive)	> 100 µM (inactive)	> 100 µM (inactive)	> 100 µM (inactive)	> 100 µM (inactive)	> 100 µM (inactive)	35.9 µM (inactive)	> 100 µM (inactive)	> 100 µM (inactive)	–	> 100 µM (inactive)	> 100 µM (inactive)	> 100 µM (inactive)	> 100 µM (inactive)	–	> 100 µM (inactive)
OC(/C(=N/c1ccccc1)c1ccccc1)c1ccccc1 (centres undefined)	5.35 µM (inactive)	29 µM	3.85 µM (inactive)	2.72 µM (inactive)	12.4 µM (inactive)	6.62 µM (inactive)	4.4 µM (inactive)	6.5 µM (inactive)	4.35 µM (inactive)	–	4.49 µM (inactive)	2.07 µM (inactive)	16.1 µM (inactive)	4.05 µM (inactive)	2.22 µM (inactive)	10.8 µM (inactive)	10.2 µM (inactive)	12.3 µM (inactive)	22.2 µM (inactive)	5.6 µM (inactive)
Cc1ccc(S(=O)(=O)SCc2ccccc2)cc1	–	14.1 µM	4.57 µM (inactive)	25.7 µM (inactive)	18.9 µM (inactive)	2.32 µM (inactive)	19 µM (inactive)	28.5 µM (inactive)	7.91 µM (inactive)	–	10.1 µM (inactive)	25.6 µM (inactive)	52.8 µM (inactive)	22.7 µM (inactive)	24.4 µM (inactive)	21 µM (inactive)	15.5 µM (inactive)	28.4 µM (inactive)	52.2 µM (inactive)	> 49.3 µM (inactive)
O=C(O)CCCCC1CCSS1 (stereo not drawn) [LIPOIC ACID, ALPHA]	> 100 µM (inactive)	> 100 µM	> 100 µM (inactive)	> 100 µM (inactive)	> 100 µM (inactive)	> 100 µM (inactive)	> 100 µM (inactive)	> 100 µM (inactive)	> 100 µM (inactive)	> 100 µM (inactive)	> 100 µM (inactive)	> 100 µM (inactive)	–	30 µM (inactive)	43.1 µM (inactive)	> 100 µM (inactive)	> 100 µM (inactive)	–	–	93.8 µM (inactive)
